Experimental data published in article PMC10597491 (PLOS ONE, 2023).
Bridge positions count the residues as written; N and C are the ends. Ends that are not written are not given here.

What was measured:
cynomolgus monkey PBMCs = experiment: pSTAT5 flow cytometry in cynomolgus PBMC subsets; format: cell-based, cynomolgus macaque; details: rested cynomolgus PBMCs
Excerpt: Frozen PBMCs from 5 healthy human donors (A, B) and cynomolgus monkey (C) were rested (A, C) or activated with anti-CD3/CD28 (B). Cells were stained for viability, followed by cell surface antibody staining on ice. […] After washing, cells were fixed, permeabilized, stained with anti-pSTAT5 antibody, and analyzed immediately by flow cytometry. The mean fluorescence intensity (MFI) of pSTAT5 detection was shown as mean ± SEM. […] Flow cytometry gating data shown in S2 Fig.
To detect phopho-STAT5 in immune subsets of PBMCs by flow cytometry, frozen human and cynomolgus macaques PBMCs (Stemcell Technologies, Cat# 70025.2 and iQ Biosciences, Cat# IQB-MnPB102, respectively) from 5 different healthy donors were thawed and rested overnight in T-cell media (CTS™ OpTmizer™ T-Cell Expansion SFM, ThermoFisher Scientific Cat# A1048501) at 37°C. Cells were stained with a viability dye for 30 min at 37°C followed by surface marker antibodies for 30 min on ice (S3 Table), then treated with serially diluted test compounds in the medium for 30 min. […] Antibody-stained cells were analyzed immediately by flow cytometry using the Novocyte Advanteon instrument (Agilent), and the data were analyzed using FlowJo software. Fluorescence minus one (FMO) controls were used to draw gates. […]

[1] = test system: rested human CD8+ T-cells; details: IL-7-treated CD8+ cells, over 6 hours at 37°C; cited from earlier work
Excerpt: Internalization of the ternary signaling complex also depletes the local ...

IL-2/15Rβγc receptor = target: T1, IL-2/15Rβγc receptor (Homo sapiens, UniProt P31785); experiment: IL-15-induced STAT activation in TF-1 cells expressing IL-2/15Rβ; format: cell-based; details: IL-15 at ~EC75; up to 10 μM MDK1472 or 5 μM MDK-703
T1 construct: pcDNA3.1 expression vector encoding full-length IL-2Rβ, IL-7Rα, IL-9Rα, or IL-21Rα; TF-1 cells naturally express γc and IL-4Rα; expressed in transfected cells
T1 sequence (P31785 23-369): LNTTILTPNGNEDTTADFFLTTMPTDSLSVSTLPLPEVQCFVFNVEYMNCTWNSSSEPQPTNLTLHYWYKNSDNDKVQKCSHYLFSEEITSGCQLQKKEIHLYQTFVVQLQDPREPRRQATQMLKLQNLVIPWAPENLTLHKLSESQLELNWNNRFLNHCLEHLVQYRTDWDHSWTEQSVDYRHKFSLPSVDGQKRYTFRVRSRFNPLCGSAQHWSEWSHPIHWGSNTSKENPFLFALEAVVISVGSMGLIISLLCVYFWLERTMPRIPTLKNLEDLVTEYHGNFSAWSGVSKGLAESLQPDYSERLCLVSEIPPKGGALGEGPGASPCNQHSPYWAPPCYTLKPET
Experimental: There is no detectable effect of the novel agonists on the activation of any of the other receptors of the γc family.
Cells were deprived of growth factors by overnight incubation at 5×10^5 cells/mL in starvation medium (RPMI 1640 + 4.5 g/L glucose + 0.2% FBS + 2 mM L-glutamine + 1 mM NaPyr + 10 mM HEPES + 0.5x penicillin-streptomycin with no cytokine supplement) in T75 flasks. For assays, cells were plated in 96-well V-bottom plates at 2×10^5 cells/well. Three-fold serial dilutions in starvation medium of the test compounds or cytokine were added to the cells and incubated for 30 min at 37°C. Following incubation, cell extracts were prepared by adding a mixture of 10x Cell Lysis Buffer (Cell Signaling Technology Cat# 9803) and 100x HALT Phosphatase and Protease Inhibitor Cocktail (Thermo Fisher Cat# 78442) directly to the wells. The plates were agitated at 25°C for 5 min to prepare cell extracts for immediate use or to be stored at -80°C until assay. […]
TF-1-derived lines separately expressing each gamma common family private receptor were starved overnight at 5x10^5 cells/mL. The following day, the cells were counted and plated at 2x10^6 cells/well in 96-well plates. […] Cell extracts were prepared and analyzed for pSTAT3, pSTAT5, or pSTAT6 accumulation with Pathscan pSTAT ELISA kits as described above.

Row | Substance | efficacy in cynomolgus lymphocyte subtypes (cynomolgus monkey PBMCs) | disappearance of surface IL-7Rα [1] | inhibition of IL-15 activation (IL-2/15Rβγc receptor)
1 | IL-7: human IL-7 cytokine (Peprotech) | equivalent efficacy | ~ 80% | 
2 | Ac-GWGIPWCTLDPGSLQCAWLGKHGGGGSGGVVCQDWEGVELCWQGG (disulfide 7-16, 32-41) [MDK1472] |  |  | neither MDK1472 nor MDK-703 exhibit inhibition
